How the values were obtained:
human NK1 receptor = human NK1 receptor (Homo sapiens (Human), UniProt P25103); assay: Affinity for human NK1 receptor (125I-substance P receptor binding test); conditions: membrane fraction of human NK1 receptor-expressing 293T cells; read-out: IC50 (concentration required for 50% inhibition of 125I-substance P binding)
Method: Affinity for Human NK1 Receptor
(3) Measurement of Binding Affinity to Human NK1 Receptor
(3-1) Preparation of Membrane Fraction from Human NK1 Receptor-expressing Cells
Human NK1 receptor-expressing cells were prepared in a 175 cm^2 culture flask (Nippon Becton Dickinson). The formation of a complex of the human NK1 receptor expression plasmid and Lipofectamine 2000 was performed by calculating the culture area ratio and increasing the scale of the method described in the above 2-4 by the ratio. The human NK1 receptor-expressing cells were collected in a buffer solution for the membrane fraction preparation (50 mM Tris (Wako Pure Chemical). 120 mM sodium chloride (Wako Pure Chemical Industries), 5 mM potassium chloride (Wako Pure Chemical Industries), 1 mM ethylenediaminetetraacetic acid (Sigma), 0.002 mg/mL chymostatin (Peptide Institute), 0.04 mg/ bacitracin (Wako Pure Chemical Industries), 0.005 mg/mL phosphoramidon (Peptide Institute) and 0.5 mM phenylmethylsulfonyl fluoride (Wako Pure Chemical Industries), pH7.4) and centrifuged at 1,880 g for 10 minutes, and the cell sediment was suspended in the buffer solution for the membrane fraction preparation. After freezing and thawing the cells once, the cells were homogenized using a Dounce-type homogenizer (cooled on ice, 1000 rpm, 20 times). The homogenized cell suspension was centrifuged at 20,000 rpm for 10 minutes, and the supernatant was removed to obtain cell sediment. The cell sediment was suspended again in the buffer solution for the membrane fraction preparation and homogenized using a Dounce-type homogenizer (cooled on ice, 1000 rpm, 30 times). The cell suspension was centrifuged at 20,000 rpm for 10 minutes, and the supernatant was removed to obtain cell sediment. The same homogenization and centrifugation were repeated again, and final cell sediment was obtained. The final cell sediment was suspended in a buffer solution for the receptor binding test (50 mM Tris (Wako Pure Chemical Industries), 3 mM manganese chloride (Wako Pure Chemical Industries), 0.002 mg/mL chymostatin (Peptide Institute), 0.04 mg/bacitracin (Wako Pure Chemical Industries) and 0.02% bovine serum albumin (Sigma), pH 7.4), and the protein concentration was measured using BCA Protein Assay Kit (Pierce).
(3-2) Receptor Binding Test
The buffer solution for the receptor binding test was dispensed to the wells of a 96-well assay plate (Greiner) at 22.5 μL/well. DMSO solutions of a test compound, which were prepared at an 80-time higher concentration using 100% dimethyl sulfoxide (DMSO), were added to the wells at 2.5 μL/well (final concentrations of 1 nM to 100 nM), and the solutions were mixed. As a radiolabeled ligand, ^125I-substance P (Substance P, [^125I]Tyr^8-, PerkinElmer) was used. ^125I-substance P was diluted with the buffer solution for the receptor binding test to a concentration resulting in […] and added to the 96-well assay plate, and the solutions were mixed. The membrane fraction prepared from the human NK1 receptor-expressing cells was diluted with the buffer solution for the receptor binding test to a concentration resulting in 8 to 10 μg/well, suspended until the suspension became in such a homogenous state that the suspension could flow through as 27G injection needle smoothly and then added to the 96-well assay plate at 150 μL/well. Then, the plate was incubated at room temperature for 60 minutes while shaking the plate. The reaction solutions were suction-filtered. through a multiscreen 96-well filter plate (Millipore) which had been pre-treated with 0.3% polyethyleneimine, and the reaction was terminated by washing with a washing solution (50 mM Tris and 0.02% bovine serum albumin, pH 7.4) four times. The bottom of the microplate was dried at 60° C., and then 100 μL/well of MicroScint 20 (PerkinElmer) was dispensed to the wells. The top of the plate was sealed with TopSeal A (PerkinElmer), and the plate was shaken for 5 to 10 minutes. […]

CYP3A4 = CYP3A4 (Homo sapiens (Human), UniProt P08684); assay: Inhibitory effect on CYP3A4 (Luciferin-IPA); conditions: read-out: IC50 (CYP3A4 inhibition); 30-minute pre-incubation group
Method: Enzyme reaction was performed by incubating in a potassium phosphate buffer solution (pH 7.4) containing 1 nM to 20 μM test compound, 3.2 mM magnesium chloride, 0.2 pmol human CYP3A4 (BD Biosciences), 0.5 mM reduced nicotinamide adenine dinucleotide phosphate (NADPH) and 3 μM Luciferin-IPA (Promega) at 37° C. for 10 minutes. The volume of the reaction solution was 50 μL/well. The 30-minute pre-incubation group was incubated at 37° C. for 30 minutes before adding the substrate, the Luciferin-IPA solution (12.5 μL/well). At the end of the enzyme reaction, 50 μL/well of a Luciferin detection reagent (Promega) was added to the wells, and the plate was left at room temperature for 20 minutes. Then, the emission intensities were measured with Infinite M1000 (TECAN). The enzyme activities (%) relative to the value of the group to which the test compound was not added were calculated.

[1] = Measurement of drug concentrations in the brain after foot-tapping test; format: in vivo; conditions: male; 0.3 mg/kg iv, after foot-tapping was finished, gerbil brain; read-out: Conc. (drug concentration in the brain)
Method: A male gerbil (Japan SLC) was anesthetized with isoflurane, and 0.3 mg/kg of a test compound was administered from the jugular vein. After four hours, GR73632 (5 pmol/5 μl), which is an NK1 receptor agonist, was administered into the cerebral ventricle at the part 1 mm lateral to and 4.5 mm below the bregma in the head, under anesthesia with isoflurane. After the administration, the gerbil was moved to an observation cage, and the foot-tapping period during five minutes after the recovery of the righting reflex was measured. The foot-tapping inhibition rate (%) of each test compound was calculated by the following equation. Foot-tapping inhibition rate (%)={1−(Foot-tapping period when test compound was administered)/(Foot-tapping period when solvent was administered)}×100 (2) Measurement of Drug Concentrations
After foot-tapping was finished, laparotomy was performed immediately under anesthesia with ether, and a blood sample was taken from the abdominal vena cava. At the same time, the brain was extracted. Through a quantitative analysis using liquid chromatography-mass spectrometry (LC/MS), the concentrations of the test compound in the plasma and the brain were measured.
In the table, Ex. No. means the Example number. Inhibition (%) is the foot-tapping inhibition rate, and Conc. (nM) is the drug concentration in the brain.

[2] = system: cisplatin-induced acute and delayed emetic response; assay: Effect on cisplatin-induced acute and delayed emetic response; format: in vivo, ferret
Method: No 1, 1 mg/kg, po) in the acute phase, and a value of control group, the group intravenously administered with 3 mg/kg of the compound of Example 1 (Ex. […] No 1, 1 mg/kg, po) in the delayed phase from the left respectively. The vertical axes show the number of retching and vomiting ([…]) (the mean+standard error of 5 examples of control group, the mean+standard error of 5 examples of the group intravenously administered, and the mean+standard error of 5 examples of the group orally administered). Effect on Cisplatin-induced Acute and Delayed Emetic Response The test compound solution was prepared by dissolving the test compound in a vehicle (a mixture of 50% N,N-dimethylformamide (Wako Pure Chemical Industries), 30% propylene glycol (Wako Pure Chemical Industries) and 4% 2-hydroxypropyl-β-cyclodextrin (Wako Pure Chemical Industries)). The vehicle only was administered to the control group. Under anesthesia with isoflurane, 3 mg/kg of the test compound was intravenously administered to a male ferret (Marshall BioResources Japan) from the jugular vein. Cisplatin, which was heated to 40-50° C., was intraperitoneally administered at 5 mg/kg one hour after the drug administration. […] The solvent only was administered to the control group. The test compound was orally administered to a male ferret (Marshall BioResources Japan). The oral administration was performed every 24 hours at 1 mg/kg three times in total. Cisplatin, which was heated to 40-50° C., was intraperitoneally administered at 5 mg/kg one hour after the first oral administration of the test compound.

human NK1 receptor, sequence (P25103 whole entry): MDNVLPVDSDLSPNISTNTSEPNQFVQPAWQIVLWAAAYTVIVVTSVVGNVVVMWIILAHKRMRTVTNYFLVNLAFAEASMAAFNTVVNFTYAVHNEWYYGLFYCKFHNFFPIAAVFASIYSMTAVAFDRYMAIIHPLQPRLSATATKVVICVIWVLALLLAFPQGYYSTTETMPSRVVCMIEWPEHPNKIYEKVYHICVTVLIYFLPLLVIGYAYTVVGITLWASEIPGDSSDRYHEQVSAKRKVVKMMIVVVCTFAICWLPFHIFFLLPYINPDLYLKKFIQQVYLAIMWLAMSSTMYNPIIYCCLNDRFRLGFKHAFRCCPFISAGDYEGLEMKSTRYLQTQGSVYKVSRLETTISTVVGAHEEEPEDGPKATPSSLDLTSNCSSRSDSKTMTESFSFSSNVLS
CYP3A4, sequence (P08684 whole entry): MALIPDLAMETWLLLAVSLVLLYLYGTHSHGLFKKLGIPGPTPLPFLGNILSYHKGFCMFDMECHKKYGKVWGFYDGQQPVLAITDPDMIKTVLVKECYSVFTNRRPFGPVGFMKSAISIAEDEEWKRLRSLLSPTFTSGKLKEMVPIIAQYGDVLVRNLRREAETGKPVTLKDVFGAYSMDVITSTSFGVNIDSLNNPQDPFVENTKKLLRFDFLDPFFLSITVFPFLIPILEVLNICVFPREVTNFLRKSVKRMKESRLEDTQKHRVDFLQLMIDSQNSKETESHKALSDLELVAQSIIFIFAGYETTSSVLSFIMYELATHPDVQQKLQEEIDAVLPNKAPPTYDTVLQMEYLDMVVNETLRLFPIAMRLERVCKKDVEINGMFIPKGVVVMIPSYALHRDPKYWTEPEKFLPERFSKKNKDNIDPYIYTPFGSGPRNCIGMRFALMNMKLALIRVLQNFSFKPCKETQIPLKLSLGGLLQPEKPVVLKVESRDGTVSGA

- IC50 (human NK1 receptor): 0.00211 µM
- IC50 (CYP3A4): 6.2 µM
- concentration at 4 h [1]: 275 nM
SMILES: Cc1cc(F)ccc1-c1cc(N2CCC(CC(=O)O)CC2)ncc1N(C)C(=O)C(C)(C)c1cc(C(F)(F)F)cc(C(F)(F)F)c1 [Example 1]
- number of retching and vomiting ([2]; 1 mg/kg po every 24 hours three times, acute phase (up to 24 hours after cisplatin)): inhibition of the number of retching and vomiting was observed
- number of retching and vomiting ([2]; 1 mg/kg po every 24 hours three times, delayed phase (24 to 72 hours after cisplatin)): inhibition of the number of retching and vomiting was observed
- number of retching and vomiting ([2]; 3 mg/kg iv, acute phase (up to 24 hours after cisplatin)): inhibition of the number of retching and vomiting was observed
- number of retching and vomiting ([2]; 3 mg/kg iv, delayed phase (24 to 72 hours after cisplatin)): inhibition of the number of retching and vomiting was observed

From patent publication US10100030B2 (Kissei Pharmaceutical Co., Ltd., priority 2013, dated 2018)
